# Measurements: patent US11420975B2, “Substituted imidazo[1,5-a]pyrazines as Bruton's tyrosine kinase inhibitors” (TRANSTHERA SCIENCES (NANJING), INC., priority 2018, dated 2022)
# Where “and” joins values, the source holds several entries; their conditions need not be identical. Equal entries are not always repeated.
# Legend:
# [1] = system: TMD-8 xenograft tumor; assay: TMD-8 xenograft tumor model; format: in vivo; conditions: for TGI: bid
# Description: CB17/SCID female mice with serious immune deficiency were purchased from Beijing Vital River Laboratory Animal Technology Co., Ltd. and bred in SPF animal houses. Human TMD-8 cells (Shanghai Junrui-UFBN1682) were cultured in an RPMI 1640 culture medium containing 10% fetal bovine serum, 100 U/mL penicillin and 100 μg/mL streptomycin through monolayer culture in vitro in an incubator (37° C., 5% C02). Routine treatment was performed twice a week for passaging. At a cell saturation of 80%-90% and a required number, the cells were harvested and counted. 0.2 mL (1×10^7) of TMD-8 cells (together with matrigel at a volume ratio of 1:1) were subcutaneously inoculated into the right back of each mouse, and the tumor size could be measured about one week after inoculation. Tumor size was measured using a vernier caliper and tumor volume was calculated using the following formula: tumor volume=(length×width^2)/2.
# [2] = molecular target: T1, BTK(C481S) (Homo sapiens (Human), UniProt Q06187, C481S); assay: pBTK inhibition in HEK293 cells transfected with BTK(C481S) (ELISA); format: cell-based; conditions: 2 h
# Description: For positive (high signal) controls, cells were treated with 0.5% DMSO alone. […] The absorbance was read at 450 nm. • Based on the absorbance readings of the positive and negative control values, the % inhibition value was calculated according to the following formula: (% INH=((positive control−sample)/(positive control−negative control))×100. • The Z′ value was calculated based on the following formula: 1−((3×standard deviation of positive+3×standard deviation of negative)/(mean positive−mean negative)). • The […] was plotted using GraphPad Prism. • IC50 values were determined after sigmoidal dose-response curve fitting.
# [3] = molecular target: BTK(wt) (Homo sapiens (Human), UniProt Q06187); assay: In vitro inhibitory activity against BTK(wt) enzyme (33P-ATP filter binding); format: biochemical; conditions: class symbols
# Description: (§1) The substrate solution was prepared by adding the substrate poly(Glu, Tyr) sodium salt (Sigma Aldrich, St. Louis, Mo.) to the substrate reaction buffer (20 mM Hepes (pH 7.5), 10 mM MgCl2, 1 mM EGTA, 0.02% Brij35, 0.02 mg/mL BSA, 0.1 mM Na3VO4, 2 mM DTT and 1% DMSO) (final substrate concentration in the reaction solution was 0.2 μM). Test compound was formulated into stock solutions at 10 mM concentration with 100% DMSO, and 3-fold serial dilution for 10 doses was performed in a 384-well cyclic olefin copolymer LDV microplate. […] Test compound in 100% DMSO was then added to the kinase reaction mixture by acoustic liquid transfer technology (Echo 550; nanoliter range) (Labcyte Inc, Sunnyvale, Calif.) and incubated for 20 min at room temperature. 33P-ATP (specific activity 10 μCi/μL) was added to the reaction mixture to initiate the reaction, followed by incubation at room temperature for 2 h. A small portion of the reaction mixture was dropped onto P-81 ion exchange filter paper (Whatman). After washing the unbound phosphate from the filter paper with 0.75% phosphate buffer (three times) and drying, the remaining radioactivity on the filter paper was measured. The kinase activity was expressed as the percentage of the remaining kinase activity in the test sample to the kinase activity in the vehicle (dimethyl sulfoxide) blank control. IC50 values were calculated by curve fitting the data obtained using Prism (GraphPad Software).
# [4] = system: OCI-LY10; assay: In vitro tumor cell proliferation inhibition, OCI-LY10 (CellTiter-Glo); format: cell-based; conditions: Homo sapiens; OCI-LY10 cells, 72 h
# Description: (1) Method • The tumor cell line (TMD-8/OCY-LY10) was suspended in RPMI1640+FBS10% and cultured in an incubator (37° C., 5% CO2). Cells were passaged periodically, and cells at logarithmic growth phase were collected for plating. • Cell staining was performed with trypan blue and viable cells were counted. • Cell concentration was adjusted to 7000 cells/well with medium. • 90 μL of cell suspension was added to a 96-well plate and cell-free culture medium was added to the blank control wells. • Cells in the 96-well plate were incubated overnight in an incubator (37° C., 5% CO2, 100% relative humidity). • Preparation of 400× compound storage plates: test compounds and reference drug were each dissolved in DMSO and 3× diluted from the highest concentration (400 μM) to the lowest concentration (0.61 μM). • Preparation of 10× compound working solutions: 78 μL of cell culture medium was added to a V-bottom 96-well plate, and 2 μL of the compound was pipetted from the 400× compound storage plate into the 96-well plate. Vehicle control wells and blank control wells were added with 2 μL of DMSO. […] Inhibition rates of compounds at different concentrations were calculated in Excel, followed by plotting the inhibition curves and calculating IC50 values with GraphPad Prism.
# [5] = molecular target: T1, BTK(C481S); assay: In vitro inhibitory activity against BTK(C481S) enzyme (33P-ATP filter binding); format: biochemical; conditions: class symbols; read-out: IC50 BTK(C48IS)
# Description: as §1
# T1 sequence (Q06187 whole entry C481S): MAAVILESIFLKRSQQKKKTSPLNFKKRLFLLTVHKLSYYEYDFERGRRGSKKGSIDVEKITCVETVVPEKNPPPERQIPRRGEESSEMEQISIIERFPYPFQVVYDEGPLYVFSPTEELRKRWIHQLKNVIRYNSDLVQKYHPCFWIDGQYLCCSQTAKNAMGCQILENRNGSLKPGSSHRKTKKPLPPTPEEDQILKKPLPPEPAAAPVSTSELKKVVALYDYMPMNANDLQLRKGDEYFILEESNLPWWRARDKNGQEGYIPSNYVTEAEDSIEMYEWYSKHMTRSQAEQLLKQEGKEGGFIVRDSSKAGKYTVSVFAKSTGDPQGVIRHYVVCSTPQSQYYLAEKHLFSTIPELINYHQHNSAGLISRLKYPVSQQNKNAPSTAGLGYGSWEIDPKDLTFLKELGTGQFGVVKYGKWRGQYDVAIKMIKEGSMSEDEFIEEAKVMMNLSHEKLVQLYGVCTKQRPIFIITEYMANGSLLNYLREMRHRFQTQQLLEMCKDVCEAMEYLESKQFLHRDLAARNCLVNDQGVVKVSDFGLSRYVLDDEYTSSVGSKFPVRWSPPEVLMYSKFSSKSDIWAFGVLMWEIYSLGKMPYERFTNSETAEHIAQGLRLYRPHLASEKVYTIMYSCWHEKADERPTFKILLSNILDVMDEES
# Sequence of BTK(wt) (Q06187 whole entry): as the sequence (Q06187 whole entry C481S) above, with S481C counted along it
smiles,measurement,setting,value
"Nc1nccn2c(C34CCC(NC(=O)CN5CCOCC5)(CC3)C4)nc(-c3ccc(C(=O)Nc4cc(C(F)(F)F)ccn4)cc3)c12 [Compound A-10-10, 4-(8-amino-3-(4-(2-morpholinoacetamido)bicyclo[2.2.1]heptan-1-yl)imidazo[1,5-a]pyrazin-1-yl)-N-(4-(trifluoromethyl)pyridin-2-yl)benzamide]",xenograft tumors disappeared (fraction),"[1]; 50 mg/kg group, after 27 days of administration",5/8
same,tolerance of tumor-bearing mice,[1]; all dosages,good tolerance
same,effect on body weight of tumor-bearing mice,[1]; all treatment groups,no significant weight loss
same,TGI,[1]; intragastric 25 mg/kg,94%
same,TGI,[1]; intragastric 50 mg/kg,104%
same,IC50,[2],66 nM and 63 nM
same,IC50,[3],1 to 10 nM
same,IC50,[4],10.3 nM
same,IC50,[5],≤ 0.1 nM
